Patent US20160339022A1, “TREATMENT OF NEUROBLASTOMA WITH HISTONE DEACETYLASE INHIBITORS” (Acetylon Pharmaceuticals Inc., priority 2015, published 2016)
One block for each compound: values may come before it.

Assays:
SK-N-BE(2) cells [1] = test: Cell viability (Promega CellTiter Glo assay); assay type: cell-based
Description: (§1) Cells were cultured for 48 hours at the indicated concentration of drug, and then cell viability was measured by Promega CellTiter Glo assay and caspase activity was measured by Promega Caspase3/7 Glo assay. […] Anti-tumor activity is evident at 3 μM of treatment.

neuroblastoma cells [2] = test: Morphology changes / dendrite outgrowth by inverted microscope; assay type: cell-based; conditions: 3, 5 and 7 days
Description: Cells were cultured for 3, 5, and 7 days with the indicated treatments. Images were captured on an inverted microscope.

neuroblastoma cells [3] = test: Cell cycle analysis (Click-iT EdU and FxCycle PI/RNase staining); assay type: cell-based; conditions: 7 days
Description: Cells were cultured for 7 days with the indicated treatments and then stained with the Invitrogen Click-iT EdU kit and the Invitrogen FxCycle […] kits to assess frequency of cells in each stage of the cell cycle. […] The effect is enhanced by Compound B in a dose dependent manner.
In combination with ATRA, the effect on p21 is enhanced at concentrations that induce gene expression changes consistent with differentiation. At 7 days of treatment, combination effects are observed on the cell cycle, with a decreasing frequency of s-phase cells and an increasing sub-G1 population (FIG. 6B). […] EDU is increased in cells in s-phase while PI intensity indicates relative levels of DNA. Using these metrics, we illustrate the frequency of cells in the indicated states of the cell cycle.

AKT and c-RAF = test: Levels of AKT and c-RAF; assay type: cell-based; conditions: SK-N-BE2 cells; 3 days in culture
Description: The levels of AKT and c-RAF were assessed following treatment (SK-N-BE2 cells; 3 days in culture) with DMSO (control), Compound B alone, ATRA alone, and Compound B in combination with ATRA. Activated AKT is increased by ATRA and reduced in the combination setting with Compound B. Compound B as a single agent, and in combination with ATRA, decreases cRAF phosphorylation at residue Ser259.

SK-N-BE(2) cells [4] = test: Microarray gene expression and gene set enrichment analysis; assay type: cell-based, Homo sapiens; conditions: 3 μM Compound B, 1 μM ATRA or combination, microarray 48 hr, fold relative to the DMSO control group
Description: Gene expression from cells treated with ATRA single agent and combination of ATRA and HDAC1/2i were assessed at 2 hrs and 48 hrs of treatment (FIG. 12A). […] A function analysis of the data using the Ingenuity IPA platform was performed by Qiagen; overlap is observed in the top hits between treatment groups.
Genes that statistically increase over 2-fold relative to the DMSO control were mapped on a Venn diagram (FIG. 12B).
Neuroblastoma cell line SK-N-BE(2) cells were treated with 3 μM Compound B, 1 μM ATRA, or a combination of both at 37° C. over 2 hours (FIG. 12A) or 48 hours (FIG. 12B) and compared to the solvent (DMSO) control.

neuroblastoma cells [5] = conditions: MTS assay, FIGS. 27 and 28
Description: Viable cells were measured in an MTS assay and the combination index (CI) was calculated using the Chou-Talaay method.

SK-N-BE2 cells = test: Levels of proteins related to cell-cycle progression; assay type: cell-based; conditions: 3 days in culture
Description: The levels of proteins related to cell-cycle progression were assessed following treatment (SK-N-BE2 cells; 3 days in culture) with DMSO (control), Compound B alone, ATRA alone, and Compound B in combination with ATRA. p21 is increased by ATRA and enhanced by Compound B. Cyclin D1 is decreased in the combination setting relative to ATRA as a single agent. CDK2 and CDK4 are decreased in the combination setting with Compound B and ATRA.

[6] = tested on: retinoic acid receptor (RAR); test: Retinoic acid receptor ChIP-seq; assay type: cell-based; conditions: 3 μM Compound B, 48 hours
Excerpt: Retinoic acid receptor active binding sites defined in any individual treatment group by ChIP-seq at 48 hrs after treatment were stacked (y-axis) and aligned to the center of the binding peak (x-axis) (FIG. 13). […] Many of the genes found near region 1 binding sites are involved in regulation of retinoid signaling and are transcription factors that drive differentiation (Table 10).
Regions 1-7 of FIG. 13 are defined relative to DMSO: 1, [Combo] Increased; 2, [ATRA] Increased; 3, [ATRA] [Combo] Increased; 4, [Combo] [ATRA] [Compound B] Increased; 5, [Combo] [ATRA] Decreased; 6, [Compound B] Decreased; and 7, [Compound B] [Combo] [ATRA] Decreased.
Neuroblastoma cell line SK-N-BE(2) cells were treated with 3 μM Compound B, 1 μM ATRA, or a combination of both at 37° C. over 48 hours and compared to the solvent (DMSO) control. Antibodies to pan-retinoic acid receptor were used to pull down DNA associated with the receptor binding and sequenced. Lists of binding regions were mapped to the chromosome and “associated” with a given gene if the binding region was located within 10,000 bp up- or down-stream of the gene in question. Binding regions were represented as a heatmap where the sites were stacked on the y-axis across treatments, the “0” mark on the x-axis is the center of the binding peak and the intensity of signal indicated by color. The bracketed regions are areas of statistical significance relative to the DMSO control as indicated on the plot.
Table 12 lists the genes returned when the following conditions are met: 1) combo peak height >4 fold relative to the DMSO control group, and 2) combo expression >4 fold relative to the DMSO control group.

neuroblastoma cells [7] = test: Neuroblastoma proliferation, manual cell counts over 7 days; assay type: cell-based; conditions: 0.75 μM and 2 μM, counted at days 3, 5 and 7
Description: Cells were cultured over a 7 day period and manually counted at days 3, 5, and 7.

SK-N-BE(2) cells [8] = test: Caspase activity (Promega Caspase3/7 Glo assay); assay type: cell-based; conditions: 1 μM, 48 hours
Description: as §1

HDAC2 = HDAC2 (Homo sapiens, UniProt Q92769); test: Biochemical activity of isoform-selective HDAC inhibitors, HDAC2; conditions: biochemical assay
neuroblastoma cells [9] = test: Long term growth assay (15, 20, 25 days, Crystal Violet); assay type: cell-based; conditions: 1 μM of exposure, single agent; FIG. 11
Description: Cells were cultured for 15, 20 or 25 days with the indicated treatments. Cells were imaged on an inverted microscope at days 15 and 20. On day 25, the cells were stained with Crystal Violet dye and imaged by cell phone camera Importantly, the combination of ATRA and Compound B suppressed the growth of ATRA-resistant colonies.
Cells were cultured for 15, 20 or 25 days with the indicated treatments. Cells were imaged on an inverted microscope at days 15 and 20. On day 25, the cells were stained with Crystal Violet dye and imaged.
Cells were cultured for 15, 20 or 25 days with the indicated treatments. Cells were imaged on an inverted microscope at days 15 and 20. On day 25, the cells were stained with Crystal Violet dye and imaged. It was observed that the combination activity is mediated by HDAC1/2i.
Neuroblastoma cells were treated with Compound B or the HDAC3-selective inhibitor Compound C in a long term growth assay.

HDAC1 = HDAC1 (Homo sapiens, UniProt Q13547); test: Biochemical activity of isoform-selective HDAC inhibitors, HDAC1; conditions: biochemical assay
IMR-32 tumors = test: IMR-32 neuroblastoma tumor growth in NUDE mice; assay type: in vivo; conditions: IMR-32 tumors in NUDE mice, orally once daily, 5/2 on/off schedule
Description: IMR-32 tumors were implanted in NUDE mice and Compound E and retinoic acid was administered orally once daily at the indicated doses on a 5/2 on/off schedule.

[10] = SK-N-BE(2) cells, 1 μM ATRA or combination, fold relative to the DMSO control group

HDAC1, sequence (Q13547 whole entry, canonical isoform): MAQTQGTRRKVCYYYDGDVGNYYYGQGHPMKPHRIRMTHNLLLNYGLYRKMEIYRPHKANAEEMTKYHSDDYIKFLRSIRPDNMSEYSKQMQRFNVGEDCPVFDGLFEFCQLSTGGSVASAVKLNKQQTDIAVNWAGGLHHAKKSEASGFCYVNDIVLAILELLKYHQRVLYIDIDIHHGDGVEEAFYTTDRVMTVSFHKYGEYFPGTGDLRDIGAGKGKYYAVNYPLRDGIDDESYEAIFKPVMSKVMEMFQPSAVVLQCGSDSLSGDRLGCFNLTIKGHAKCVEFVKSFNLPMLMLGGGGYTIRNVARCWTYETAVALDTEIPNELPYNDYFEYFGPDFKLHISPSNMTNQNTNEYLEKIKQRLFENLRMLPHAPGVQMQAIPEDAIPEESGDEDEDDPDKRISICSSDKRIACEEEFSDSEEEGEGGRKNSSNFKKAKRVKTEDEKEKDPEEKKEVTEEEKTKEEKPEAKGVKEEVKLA
HDAC2, sequence (Q92769 whole entry, canonical isoform): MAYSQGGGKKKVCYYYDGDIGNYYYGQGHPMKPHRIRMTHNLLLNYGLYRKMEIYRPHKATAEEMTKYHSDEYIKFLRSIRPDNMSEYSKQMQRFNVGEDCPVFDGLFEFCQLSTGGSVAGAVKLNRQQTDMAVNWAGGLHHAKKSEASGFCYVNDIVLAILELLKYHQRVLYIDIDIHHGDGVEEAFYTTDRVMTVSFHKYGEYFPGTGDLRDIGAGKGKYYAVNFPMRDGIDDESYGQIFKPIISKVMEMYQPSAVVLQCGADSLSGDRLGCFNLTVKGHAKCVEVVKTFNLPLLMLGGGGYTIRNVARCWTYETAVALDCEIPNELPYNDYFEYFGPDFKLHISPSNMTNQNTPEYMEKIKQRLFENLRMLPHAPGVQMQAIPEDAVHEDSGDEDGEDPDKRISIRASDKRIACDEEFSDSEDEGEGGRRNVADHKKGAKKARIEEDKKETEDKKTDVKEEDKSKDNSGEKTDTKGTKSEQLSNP

Compound: CC1=C(/C=C/C(C)=C/C=C/C(C)=C/C(=O)O)C(C)(C)CCC1 [ATRA, all-trans-retinoic acid, reference compound]
- effect of added ATRA on HDAC1/2i mediated toxicity (SK-N-BE(2) cells [1]; addition of 1 μM or 3 μM of ATRA to Compound B, FIG. 2A): little effect
- morphology / dendrite outgrowth (neuroblastoma cells [2]): caused the outgrowth of dendrites over time
- cell cycle stage frequency, single agent (neuroblastoma cells [3]): reduces s-phase frequency and increases the sub-G1 population
- activated AKT (AKT and c-RAF): increased
- Gene Expression Change, ACSL3 (SK-N-BE(2) cells [4]): 1.68
- Gene Expression Change, ATP7A (SK-N-BE(2) cells [4]): 4.30
- Gene Expression Change, CDKN1A (SK-N-BE(2) cells [4]): 1.25
- Gene Expression Change, CRABP2 (SK-N-BE(2) cells [4]): 12.15
- Gene Expression Change, CTSH (SK-N-BE(2) cells [4]): 2.40
- Gene Expression Change, CYP26A1 (SK-N-BE(2) cells [4]): 7.84
- Gene Expression Change, CYP26B1 (SK-N-BE(2) cells [4]): 116.67
- Gene Expression Change, DHRS3 (SK-N-BE(2) cells [4]): 24.14
- Gene Expression Change, DUSP6 (SK-N-BE(2) cells [4]): 8.59
- Gene Expression Change, ETS1 (SK-N-BE(2) cells [4]): 3.50
- Gene Expression Change, HSPA5 (SK-N-BE(2) cells [4]): 1.48
- Gene Expression Change, IER3 (SK-N-BE(2) cells [4]): 3.75
- Gene Expression Change, NFKBIZ (SK-N-BE(2) cells [4]): 2.85
- Gene Expression Change, PCDH18 (SK-N-BE(2) cells [4]): 3.98
- Gene Expression Change, PTGER2 (SK-N-BE(2) cells [4]): 2.48
- Gene Expression Change, RARB (SK-N-BE(2) cells [4]): 3.91
- Gene Expression Change, RET (SK-N-BE(2) cells [4]): 10.78
- cytotoxic effect on neuroblastoma cells as a single agent (neuroblastoma cells [5]): has a cytotoxic effect
- p21 level (SK-N-BE2 cells): increased
- RAR Binding (Peak Height), ACSL3 [6, 10]: 1.00
- RAR Binding (Peak Height), ATP7A [6, 10]: 4.60
- RAR Binding (Peak Height), CDKN1A [6, 10]: 4.75
- RAR Binding (Peak Height), CRABP2 [6, 10]: 3.15
- RAR Binding (Peak Height), CTSH [6, 10]: 5.42
- RAR Binding (Peak Height), CYP26A1 [6, 10]: 7.00
- RAR Binding (Peak Height), CYP26B1 [6, 10]: 11.50
- RAR Binding (Peak Height), DHRS3 [6, 10]: 7.50
- RAR Binding (Peak Height), DUSP6 [6, 10]: 4.00
- RAR Binding (Peak Height), ETS1 [6, 10]: 3.99
- RAR Binding (Peak Height), HSPA5 [6, 10]: 2.00
- RAR Binding (Peak Height), IER3 [6, 10]: 6.83
- RAR Binding (Peak Height), NFKBIZ [6, 10]: 4.00
- RAR Binding (Peak Height), PCDH18 [6, 10]: 3.50
- RAR Binding (Peak Height), PTGER2 [6, 10]: 2.13
- RAR Binding (Peak Height), RARB [6, 10]: 2.20
- RAR Binding (Peak Height), RET [6, 10]: 8.86
- RAR binding to chromatin ([6]; SK-N-BE(2), 1 μM ATRA, vs DMSO): increased RAR binding

Compound: O=C(CCCCCCNC(=O)c1cnc(N(c2ccccc2)c2ccccc2Cl)nc1)NO [Compound A, 2-((2-chlorophenyl)(phenyl)amino)-N-(7-(hydroxyamino)-7-oxoheptyl)pyrimidine-5-carboxamide]
- cell death (SK-N-BE(2) cells [1]; 1 μM, 48 hours): Minimal
- anti-tumor activity (SK-N-BE(2) cells [1]; 3 μM, 48 hours): evident
- proliferation, single agent (neuroblastoma cells [7]): can suppress proliferation similar to ATRA
- cytotoxic effect on neuroblastoma cells as a single agent (neuroblastoma cells [5]): has a cytotoxic effect
- caspase 3/7 induction (SK-N-BE(2) cells [8]): Minimal

- IC50 (HDAC2): 619 nM
- IC50 (HDAC1): 2000 nM
Compound: Nc1cc(F)ccc1NC(=O)c1cnc2c(C3CC3)c(N3CCNCC3)ccc2c1 [Compound C, N-(2-amino-4-fluorophenyl)-8-cyclopropyl-7-(piperazin-1-yl)quinoline-3-carboxamide]
- neuroblastoma cell growth in long term growth assay (neuroblastoma cells [9]): required higher concentrations to mediate a similar effect

Compound: Nc1ccc(-c2cccs2)cc1NC(=O)c1ccc2nc(N3CCNCC3)ccc2c1 [Compound E]
- tumor growth (IMR-32 tumors): dose-dependent trend toward reduced tumor growth
